{"source": "paper PMC4256409", "about": "“Role of Phenylalanine and Valine^10 Residues in the Antimicrobial Activity and Cytotoxicity of Piscidin-1” (PLoS ONE, 2014)", "key": {"[1]": {"system": "MRSA CCARM 3090", "assay_type": "cell-based, Methicillin-resistant S. aureus", "conditions": "MRSA CCARM 3090; broth microdilution, 37°C, 16 h; three independent experiments in triplicate, SD 14.0%", "excerpt": "(§1) Escherichia coli KCTC 1682, E. coli KCTC 2593, E. coli KCTC 2571, Salmonella typhimurium KCTC 1926, Pseudomonas aeruginosa KCTC 1637, P. aeruginosa KCTC 2004, P. aeruginosa KCTC 2513, Bacillus subtilis KCTC 3068, B. subtilis KCTC 1021, B. subtilis KCTC 1022, Staphylococcus epidermidis KCTC 1917, Staphylococcus aureus KCTC 1621, S. aureus KCTC 1916, and S. aureus KCTC 3881 were purchased from the Korean Collection for Type Cultures, Korea Research Institute of Bioscience & Biotechnology (Taejon, Korea). Methicillin-resistant S. aureus (MRSA) (CCARM 3089, CCARM 3090, CCARM 3108, CCARM 3114, and CCARM 3126), multidrug-resistant E. coli (MDREC) (CCARM 1229 and CCARM 1238), multidrug-resistant S. typhimurium (MDRST) (CCARM 8003, CCARM 8007, and CCARM 8009), multidrug-resistant Acinetobacter baumanii (MDRAB) (CCARM 12005, CCARM 12035, CCARM 12036, CCARM 12037), and multidrug-resistant P. aeruginosa (MDRPA) (CCARM 2002, CCARM 2003, CCARM 2095, and CCARM 2163) were obtained from the Culture Collection of Antibiotic-Resistant Microbes (CCARM) at Seoul Women’s University in Korea. The antimicrobial activities of the peptides against selected organisms, including three Gram-positive, three Gram-negative, and five antibiotic-resistant bacteria, were determined using a broth microdilution assay. Briefly, single colonies of bacteria and fungi were inoculated into Luria-Bertani (LB) medium and cultured overnight at 37°C. An aliquot of the culture was transferred to 10 mL of fresh LB and incubated for an additional 3–5 h at 37°C until it reached the mid-logarithmic phase. Two-fold serial dilutions of the peptides in 1% peptone were prepared. The serial dilutions (100 µL) were added to 100 µL of cells (2×10^6 colony-forming units (CFU)/mL) in 96-well microtiter plates and incubated at 37°C for 16 h. […] MIC values were calculated as the average of triplicate measurements from three independent assays."}, "[2]": {"system": "MDRPA CCARM 2163", "assay_type": "cell-based, multidrug-resistant P. aeruginosa", "conditions": "broth microdilution, 37°C, 16 h, three independent experiments in triplicate, SD 14.0%", "description": "(§2) The antimicrobial activities of the peptides against selected organisms, including three Gram-positive, three Gram-negative, and five antibiotic-resistant bacteria, were determined using a broth microdilution assay. Briefly, single colonies of bacteria and fungi were inoculated into Luria-Bertani (LB) medium and cultured overnight at 37°C. An aliquot of the culture was transferred to 10 mL of fresh LB and incubated for an additional 3–5 h at 37°C until it reached the mid-logarithmic phase. Two-fold serial dilutions of the peptides in 1% peptone were prepared. The serial dilutions (100 µL) were added to 100 µL of cells (2×10^6 colony-forming units (CFU)/mL) in 96-well microtiter plates and incubated at 37°C for 16 h. […] MIC values were calculated as the average of triplicate measurements from three independent assays."}, "[3]": {"system": "E.coli KCTC2571", "assay_type": "cell-based, Escherichia coli", "conditions": "E.coli KCTC2571; broth microdilution, 37°C, 16 h; three independent experiments in triplicate, SD 14.0%", "description": "as §2"}, "[4]": {"system": "E. coli KCTC2593", "assay_type": "cell-based, Escherichia coli", "conditions": "E. coli KCTC2593; broth microdilution, 37°C, 16 h; three independent experiments in triplicate, SD 14.0%", "excerpt": "as §1"}, "[5]": {"system": "MDRAB CCARM 12037", "assay_type": "cell-based, multidrug-resistant Acinetobacter baumanii", "conditions": "broth microdilution, 37°C, 16 h, three independent experiments in triplicate, SD 14.0%", "description": "as §2"}, "[6]": {"system": "MDRAB CCARM 12005", "assay_type": "cell-based, multidrug-resistant Acinetobacter baumanii", "conditions": "broth microdilution, 37°C, 16 h, three independent experiments in triplicate, SD 14.0%", "description": "as §2"}, "[7]": {"system": "E. coli KCTC1682", "assay_type": "cell-based, Escherichia coli", "conditions": "E. coli KCTC1682; broth microdilution, 37°C, 16 h; three independent experiments in triplicate, SD 14.0%", "description": "as §2"}, "[8]": {"system": "MDRST CCARM 8003", "assay_type": "cell-based, multidrug-resistant S. typhimurium", "conditions": "broth microdilution, 37°C, 16 h, three independent experiments in triplicate, SD 14.0%", "excerpt": "as §1"}, "[9]": {"system": "MDRST CCARM 8007", "assay_type": "cell-based, multidrug-resistant S. typhimurium", "conditions": "broth microdilution, 37°C, 16 h, three independent experiments in triplicate, SD 14.0%", "excerpt": "as §1"}, "[10]": {"system": "MDRAB CCARM 12036", "assay_type": "cell-based, multidrug-resistant Acinetobacter baumanii", "conditions": "broth microdilution, 37°C, 16 h, three independent experiments in triplicate, SD 14.0%", "description": "as §2"}, "[11]": {"system": "S. aureus KCTC1916", "assay_type": "cell-based, Staphylococcus aureus", "conditions": "S. aureus KCTC1916; broth microdilution, 37°C, 16 h; three independent experiments in triplicate, SD 14.0%", "description": "as §2"}, "[12]": {"system": "MDREC CCARM 1238", "assay_type": "cell-based, multidrug-resistant E. coli", "conditions": "broth microdilution, 37°C, 16 h, three independent experiments in triplicate, SD 14.0%", "description": "as §2"}, "[13]": {"system": "Standard bacterial strains", "assay_type": "cell-based", "conditions": "average over the 14 standard bacterial strains of Table 2"}, "[14]": {"system": "MRSA CCARM 3126", "assay_type": "cell-based, Methicillin-resistant S. aureus", "conditions": "MRSA CCARM 3126; broth microdilution, 37°C, 16 h; three independent experiments in triplicate, SD 14.0%", "excerpt": "as §1"}}, "note": "Where no end group is shown, it is not given here."}
{"sequence": "FFHHIFRGIVHVGKTIHRLVTG [Pis-1, reference compound]", "values": [{"measurement": "MIC", "setting": "[1]", "result": 8.0, "unit": "µM"}, {"measurement": "MIC", "setting": "[2]", "result": 2.0, "unit": "µM"}, {"measurement": "MIC", "setting": "[3]", "result": 1.0, "unit": "µM"}, {"measurement": "MIC", "setting": "[4]", "result": 1.0, "unit": "µM"}, {"measurement": "MIC", "setting": "[5]", "result": 2.0, "unit": "µM"}, {"measurement": "MIC", "setting": "[6]", "result": 2.0, "unit": "µM"}, {"measurement": "MIC", "setting": "[7]", "result": 1.0, "unit": "µM"}, {"measurement": "MIC", "setting": "[8]", "result": 4.0, "unit": "µM"}, {"measurement": "MIC", "setting": "[9]", "result": 4.0, "unit": "µM"}, {"measurement": "MIC", "setting": "[10]", "result": 2.0, "unit": "µM"}, {"measurement": "MIC", "setting": "[11]", "result": 1.0, "unit": "µM"}, {"measurement": "MIC", "setting": "[12]", "result": 4.0, "unit": "µM"}, {"measurement": "Average MIC", "setting": "[13]", "result": 1.5, "unit": "µM"}, {"measurement": "MIC", "setting": "[14]", "result": 4.0, "unit": "µM"}]}
